{"source": "patent US20060083680A1", "about": "“Diphenyl ether derivatives and their use for imaging serotonin transporters” (The Trustees of the University of Pennsylvania, priority 2004, published 2006)", "experiment": "Biodistribution in rats after iv injection (organs)", "assay_type": "in vivo", "conditions": "for Biodistribution Blood / Biodistribution Brain / Biodistribution Heart / Biodistribution Kidney / Biodistribution Liver / Biodistribution Lung / Biodistribution Muscle / Biodistribution Skin / Biodistribution Spleen / Biodistribution Thyroid: iv", "experimental": "Biodistribution in rats: Three rats per group were used for each biodistribution study. While under ether anesthesia, 0.2 mL of a saline solution containing 10 μCi of radioactive tracer was injected into the femoral vein. The rats were sacrificed at the time indicated by cardiac excision while under ether anesthesia. Organs of interest were removed and weighed, and the radioactivity was counted. The percent dose per organ was calculated by a comparison of the tissue counts to counts of 1% of the initial dose (100 times diluted aliquots of the injected material) measured at the same time.", "note": "Several values for one entry are separate records, joined by “and”; a condition that tells them apart may be missing. Equal entries are not always repeated."}
{"smiles": "CN(C)Cc1ccccc1Oc1ccc([125I])cc1N", "note": "[[^125I]4, [^125I][^123I]2-(2-(Dimethylaminomethyl)phenoxy)-5-iodophenylamine]", "values": [{"measurement": "brain uptake", "setting": "2 min post-injection", "value": "1.77 % dose and 1.77±0.07 % dose"}, {"measurement": "Biodistribution Blood", "setting": "2 min", "value": "5.75 ± 0.54", "unit": "% dose/organ"}, {"measurement": "Biodistribution Brain", "setting": "2 min", "value": "1.77 ± 0.07", "unit": "% dose/organ"}, {"measurement": "Biodistribution Heart", "setting": "2 min", "value": "1.51 ± 0.13", "unit": "% dose/organ"}, {"measurement": "Biodistribution Kidney", "setting": "2 min", "value": "4.27 ± 0.90", "unit": "% dose/organ"}, {"measurement": "Biodistribution Liver", "setting": "2 min", "value": "5.71 ± 0.88", "unit": "% dose/organ"}, {"measurement": "Biodistribution Lung", "setting": "2 min", "value": "17.2 ± 2.32", "unit": "% dose/organ"}, {"measurement": "Biodistribution Muscle", "setting": "2 min", "value": "25.9 ± 4.82", "unit": "% dose/organ"}, {"measurement": "Biodistribution Skin", "setting": "2 min", "value": "4.45 ± 0.52", "unit": "% dose/organ"}, {"measurement": "Biodistribution Spleen", "setting": "2 min", "value": "0.44 ± 0.08", "unit": "% dose/organ"}, {"measurement": "Biodistribution Thyroid", "setting": "2 min", "value": "0.10 ± 0.02", "unit": "% dose/organ"}, {"measurement": "Biodistribution Blood", "setting": "30 min", "value": "4.56 ± 0.20", "unit": "% dose/organ"}, {"measurement": "Biodistribution Brain", "setting": "30 min", "value": "2.12 ± 0.15", "unit": "% dose/organ"}, {"measurement": "Biodistribution Heart", "setting": "30 min", "value": "0.32 ± 0.04", "unit": "% dose/organ"}, {"measurement": "Biodistribution Kidney", "setting": "30 min", "value": "2.67 ± 0.48", "unit": "% dose/organ"}, {"measurement": "Biodistribution Liver", "setting": "30 min", "value": "7.10 ± 0.66", "unit": "% dose/organ"}, {"measurement": "Biodistribution Lung", "setting": "30 min", "value": "3.56 ± 0.96", "unit": "% dose/organ"}, {"measurement": "Biodistribution Muscle", "setting": "30 min", "value": "18.1 ± 0.55", "unit": "% dose/organ"}, {"measurement": "Biodistribution Skin", "setting": "30 min", "value": "11.3 ± 0.78", "unit": "% dose/organ"}, {"measurement": "Biodistribution Spleen", "setting": "30 min", "value": "0.84 ± 0.05", "unit": "% dose/organ"}, {"measurement": "Biodistribution Thyroid", "setting": "30 min", "value": "0.15 ± 0.04", "unit": "% dose/organ"}, {"measurement": "Biodistribution Blood", "setting": "60 min", "value": "3.89 ± 0.28", "unit": "% dose/organ"}, {"measurement": "Biodistribution Brain", "setting": "60 min", "value": "1.74 ± 0.08", "unit": "% dose/organ"}, {"measurement": "Biodistribution Heart", "setting": "60 min", "value": "0.20 ± 0.01", "unit": "% dose/organ"}, {"measurement": "Biodistribution Kidney", "setting": "60 min", "value": "1.67 ± 0.21", "unit": "% dose/organ"}, {"measurement": "Biodistribution Liver", "setting": "60 min", "value": "5.79 ± 0.70", "unit": "% dose/organ"}, {"measurement": "Biodistribution Lung", "setting": "60 min", "value": "1.79 ± 0.06", "unit": "% dose/organ"}, {"measurement": "Biodistribution Muscle", "setting": "60 min", "value": "12.9 ± 0.84", "unit": "% dose/organ"}, {"measurement": "Biodistribution Skin", "setting": "60 min", "value": "13.9 ± 1.00", "unit": "% dose/organ"}, {"measurement": "Biodistribution Spleen", "setting": "60 min", "value": "0.47 ± 0.02", "unit": "% dose/organ"}, {"measurement": "Biodistribution Thyroid", "setting": "60 min", "value": "0.41 ± 0.11", "unit": "% dose/organ"}, {"measurement": "Biodistribution Blood", "setting": "120 min", "value": "3.15 ± 0.44", "unit": "% dose/organ"}, {"measurement": "Biodistribution Brain", "setting": "120 min", "value": "1.08 ± 0.06", "unit": "% dose/organ"}, {"measurement": "Biodistribution Heart", "setting": "120 min", "value": "0.13 ± 0.01", "unit": "% dose/organ"}, {"measurement": "Biodistribution Kidney", "setting": "120 min", "value": "1.24 ± 0.15", "unit": "% dose/organ"}, {"measurement": "Biodistribution Liver", "setting": "120 min", "value": "4.90 ± 0.38", "unit": "% dose/organ"}, {"measurement": "Biodistribution Lung", "setting": "120 min", "value": "0.88 ± 0.04", "unit": "% dose/organ"}, {"measurement": "Biodistribution Muscle", "setting": "120 min", "value": "9.18 ± 0.65", "unit": "% dose/organ"}, {"measurement": "Biodistribution Skin", "setting": "120 min", "value": "12.5 ± 2.14", "unit": "% dose/organ"}, {"measurement": "Biodistribution Spleen", "setting": "120 min", "value": "0.27 ± 0.01", "unit": "% dose/organ"}, {"measurement": "Biodistribution Thyroid", "setting": "120 min", "value": "0.96 ± 0.06", "unit": "% dose/organ"}, {"measurement": "Biodistribution Blood", "setting": "240 min", "value": "3.12 ± 0.32", "unit": "% dose/organ"}, {"measurement": "Biodistribution Brain", "setting": "240 min", "value": "0.33 ± 0.02", "unit": "% dose/organ"}, {"measurement": "Biodistribution Heart", "setting": "240 min", "value": "0.08 ± 0.02", "unit": "% dose/organ"}, {"measurement": "Biodistribution Kidney", "setting": "240 min", "value": "0.61 ± 0.09", "unit": "% dose/organ"}, {"measurement": "Biodistribution Liver", "setting": "240 min", "value": "3.52 ± 0.20", "unit": "% dose/organ"}, {"measurement": "Biodistribution Lung", "setting": "240 min", "value": "0.37 ± 0.03", "unit": "% dose/organ"}, {"measurement": "Biodistribution Muscle", "setting": "240 min", "value": "6.27 ± 0.06", "unit": "% dose/organ"}, {"measurement": "Biodistribution Skin", "setting": "240 min", "value": "12.6 ± 0.48", "unit": "% dose/organ"}, {"measurement": "Biodistribution Spleen", "setting": "240 min", "value": "0.13 ± 0.02", "unit": "% dose/organ"}, {"measurement": "Biodistribution Thyroid", "setting": "240 min", "value": "2.34 ± 1.16", "unit": "% dose/organ"}, {"measurement": "Biodistribution Blood", "setting": "6 hrs", "value": "3.29 ± 0.27", "unit": "% dose/organ"}, {"measurement": "Biodistribution Brain", "setting": "6 hrs", "value": "0.11 ± 0.01", "unit": "% dose/organ"}, {"measurement": "Biodistribution Heart", "setting": "6 hrs", "value": "0.08 ± 0.00", "unit": "% dose/organ"}, {"measurement": "Biodistribution Kidney", "setting": "6 hrs", "value": "0.55 ± 0.07", "unit": "% dose/organ"}, {"measurement": "Biodistribution Liver", "setting": "6 hrs", "value": "3.59 ± 0.23", "unit": "% dose/organ"}, {"measurement": "Biodistribution Lung", "setting": "6 hrs", "value": "0.25 ± 0.01", "unit": "% dose/organ"}, {"measurement": "Biodistribution Muscle", "setting": "6 hrs", "value": "5.01 ± 0.42", "unit": "% dose/organ"}, {"measurement": "Biodistribution Skin", "setting": "6 hrs", "value": "15.5 ± 1.50", "unit": "% dose/organ"}, {"measurement": "Biodistribution Spleen", "setting": "6 hrs", "value": "0.11 ± 0.01", "unit": "% dose/organ"}, {"measurement": "Biodistribution Thyroid", "setting": "6 hrs", "value": "2.68 ± 0.66", "unit": "% dose/organ"}, {"measurement": "Biodistribution Blood", "setting": "11 hrs", "value": "2.52 ± 0.47", "unit": "% dose/organ"}, {"measurement": "Biodistribution Brain", "setting": "11 hrs", "value": "0.02 ± 0.00", "unit": "% dose/organ"}, {"measurement": "Biodistribution Heart", "setting": "11 hrs", "value": "0.06 ± 0.00", "unit": "% dose/organ"}, {"measurement": "Biodistribution Kidney", "setting": "11 hrs", "value": "0.40 ± 0.10", "unit": "% dose/organ"}, {"measurement": "Biodistribution Liver", "setting": "11 hrs", "value": "2.64 ± 0.19", "unit": "% dose/organ"}, {"measurement": "Biodistribution Lung", "setting": "11 hrs", "value": "0.16 ± 0.00", "unit": "% dose/organ"}, {"measurement": "Biodistribution Muscle", "setting": "11 hrs", "value": "4.01 ± 0.85", "unit": "% dose/organ"}, {"measurement": "Biodistribution Skin", "setting": "11 hrs", "value": "10.9 ± 4.62", "unit": "% dose/organ"}, {"measurement": "Biodistribution Spleen", "setting": "11 hrs", "value": "0.09 ± 0.01", "unit": "% dose/organ"}, {"measurement": "Biodistribution Thyroid", "setting": "11 hrs", "value": "5.15 ± 1.49", "unit": "% dose/organ"}, {"measurement": "Biodistribution Blood", "setting": "24 hrs", "value": "0.70 ± 0.06", "unit": "% dose/organ"}, {"measurement": "Biodistribution Brain", "setting": "24 hrs", "value": "0.01 ± 0.00", "unit": "% dose/organ"}, {"measurement": "Biodistribution Heart", "setting": "24 hrs", "value": "0.02 ± 0.00", "unit": "% dose/organ"}, {"measurement": "Biodistribution Kidney", "setting": "24 hrs", "value": "0.17 ± 0.02", "unit": "% dose/organ"}, {"measurement": "Biodistribution Liver", "setting": "24 hrs", "value": "1.83 ± 0.07", "unit": "% dose/organ"}]}
